Measurements published in the supplement of paper PMC12463676, “Small-molecule dissolution of stress granules by redox modulation benefits ALS models” (Nature Chemical Biology, 2025).

Assays:
lipoamide = compound: NC(=O)CCCCC1CCSS1 [lipoamide]; assay: thermal stability z-score vs DMSO; higher = more thermally stabilized by treatment; settings: HeLa, lipoamide concentration 100 µM
Description: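 Cellular thermal proteome profiling in HeLa cells. Cells were treated with 100 µM lipoamide for 1 h, with or without 1 mM arsenate for a further 1 h, then heated to ten temperatures (37-66.3 °C), and soluble protein was quantified by TMT mass spectrometry relative to 0.1% DMSO controls. The thermal stability score (sum of log2 fold changes minus the abundance score) was transformed to a z-score; mean of n = 3 experiments.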

potassium arsenate = compound: O=[As]([O-])(O)O.[K+] [potassium arsenate]; assay: as above; settings: HeLa; arsenate concentration 1 mM
Description: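 Cellular thermal proteome profiling in HeLa cells treated with 1 mM arsenate for 1 h (DMSO pretreatment), heated to ten temperatures (37-66.3 °C). Soluble protein was quantified by TMT mass spectrometry relative to DMSO controls; the thermal stability score was transformed to a z-score; mean of n = 3 experiments.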

[1] = arsenate co-treatment: 1 mM arsenate 1 h
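Note: each temperature applied for 3 min, abundance score taken as mean log2 fold change at the two lowest temperatures, z-score obtained by mean subtraction and division by SD.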

Sequence of UniProt Q9UNI6 (Q9UNI6 whole entry): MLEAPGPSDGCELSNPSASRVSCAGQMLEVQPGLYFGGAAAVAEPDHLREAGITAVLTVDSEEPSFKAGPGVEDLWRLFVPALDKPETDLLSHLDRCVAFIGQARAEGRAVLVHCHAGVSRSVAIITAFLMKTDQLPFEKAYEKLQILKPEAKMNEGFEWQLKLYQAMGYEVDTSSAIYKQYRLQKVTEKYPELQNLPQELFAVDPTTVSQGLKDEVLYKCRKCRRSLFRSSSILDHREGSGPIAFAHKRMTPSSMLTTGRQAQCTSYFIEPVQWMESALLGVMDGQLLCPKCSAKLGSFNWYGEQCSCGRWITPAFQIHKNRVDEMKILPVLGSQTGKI
Sequence of UniProt Q15075 (Q15075 whole entry): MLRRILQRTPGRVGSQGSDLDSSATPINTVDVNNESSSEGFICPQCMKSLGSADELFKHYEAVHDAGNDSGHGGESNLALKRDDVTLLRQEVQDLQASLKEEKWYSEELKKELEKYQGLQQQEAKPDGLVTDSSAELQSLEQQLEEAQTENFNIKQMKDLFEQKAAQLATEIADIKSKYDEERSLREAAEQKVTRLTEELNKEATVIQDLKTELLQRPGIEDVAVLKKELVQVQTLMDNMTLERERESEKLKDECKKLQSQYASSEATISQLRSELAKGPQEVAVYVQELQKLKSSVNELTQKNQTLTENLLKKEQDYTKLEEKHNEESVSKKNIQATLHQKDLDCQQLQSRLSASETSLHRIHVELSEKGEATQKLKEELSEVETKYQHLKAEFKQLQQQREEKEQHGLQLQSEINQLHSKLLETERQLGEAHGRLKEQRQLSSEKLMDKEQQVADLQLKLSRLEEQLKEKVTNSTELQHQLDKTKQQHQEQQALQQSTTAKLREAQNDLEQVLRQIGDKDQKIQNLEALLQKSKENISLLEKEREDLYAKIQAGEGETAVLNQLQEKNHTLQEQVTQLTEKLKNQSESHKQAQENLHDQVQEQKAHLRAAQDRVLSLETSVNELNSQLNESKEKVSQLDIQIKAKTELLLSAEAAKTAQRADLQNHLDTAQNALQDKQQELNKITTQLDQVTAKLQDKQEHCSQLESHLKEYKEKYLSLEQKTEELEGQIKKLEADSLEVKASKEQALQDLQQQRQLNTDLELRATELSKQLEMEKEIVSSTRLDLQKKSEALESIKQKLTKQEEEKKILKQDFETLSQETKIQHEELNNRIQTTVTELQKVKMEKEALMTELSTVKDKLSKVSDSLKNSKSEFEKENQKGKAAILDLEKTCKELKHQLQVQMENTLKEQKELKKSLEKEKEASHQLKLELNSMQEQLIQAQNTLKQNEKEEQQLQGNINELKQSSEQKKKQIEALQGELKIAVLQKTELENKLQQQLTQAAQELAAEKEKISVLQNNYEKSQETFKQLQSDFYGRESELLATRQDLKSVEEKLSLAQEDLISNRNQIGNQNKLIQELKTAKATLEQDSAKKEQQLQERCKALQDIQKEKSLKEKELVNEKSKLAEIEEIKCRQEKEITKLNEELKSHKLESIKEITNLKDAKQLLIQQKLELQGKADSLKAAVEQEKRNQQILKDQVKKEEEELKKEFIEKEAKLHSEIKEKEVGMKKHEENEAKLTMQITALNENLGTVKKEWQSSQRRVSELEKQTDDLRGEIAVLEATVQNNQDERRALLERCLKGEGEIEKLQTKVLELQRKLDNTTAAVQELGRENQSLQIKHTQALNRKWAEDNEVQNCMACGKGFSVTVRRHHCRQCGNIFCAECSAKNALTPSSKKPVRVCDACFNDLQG
Sequence of UniProt Q96C19 (Q96C19 whole entry): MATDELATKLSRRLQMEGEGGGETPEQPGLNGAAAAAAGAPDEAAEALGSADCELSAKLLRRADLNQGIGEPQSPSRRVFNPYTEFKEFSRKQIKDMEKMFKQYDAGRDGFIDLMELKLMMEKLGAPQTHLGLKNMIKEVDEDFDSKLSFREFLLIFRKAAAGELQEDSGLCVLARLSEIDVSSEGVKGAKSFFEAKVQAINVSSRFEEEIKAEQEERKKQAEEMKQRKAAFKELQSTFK
Sequence of UniProt O95905 (O95905 whole entry, the tested form may be a part): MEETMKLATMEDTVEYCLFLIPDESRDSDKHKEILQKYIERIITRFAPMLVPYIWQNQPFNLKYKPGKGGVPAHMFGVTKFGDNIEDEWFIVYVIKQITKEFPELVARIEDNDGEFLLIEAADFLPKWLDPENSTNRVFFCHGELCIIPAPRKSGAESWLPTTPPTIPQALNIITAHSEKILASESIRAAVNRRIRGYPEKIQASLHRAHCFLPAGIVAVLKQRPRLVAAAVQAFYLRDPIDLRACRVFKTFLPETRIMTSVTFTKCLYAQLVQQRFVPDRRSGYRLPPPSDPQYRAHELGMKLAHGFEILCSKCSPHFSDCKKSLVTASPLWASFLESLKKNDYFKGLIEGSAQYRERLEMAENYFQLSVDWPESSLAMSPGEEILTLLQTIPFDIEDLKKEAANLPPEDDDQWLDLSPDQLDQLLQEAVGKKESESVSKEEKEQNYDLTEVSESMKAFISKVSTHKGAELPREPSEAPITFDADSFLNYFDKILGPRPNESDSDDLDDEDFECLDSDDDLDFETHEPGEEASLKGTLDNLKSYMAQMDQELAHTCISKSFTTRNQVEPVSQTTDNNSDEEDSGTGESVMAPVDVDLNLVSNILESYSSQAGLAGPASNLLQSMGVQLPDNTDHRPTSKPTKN
Sequence of UniProt Q7Z2Z2 (Q7Z2Z2 whole entry): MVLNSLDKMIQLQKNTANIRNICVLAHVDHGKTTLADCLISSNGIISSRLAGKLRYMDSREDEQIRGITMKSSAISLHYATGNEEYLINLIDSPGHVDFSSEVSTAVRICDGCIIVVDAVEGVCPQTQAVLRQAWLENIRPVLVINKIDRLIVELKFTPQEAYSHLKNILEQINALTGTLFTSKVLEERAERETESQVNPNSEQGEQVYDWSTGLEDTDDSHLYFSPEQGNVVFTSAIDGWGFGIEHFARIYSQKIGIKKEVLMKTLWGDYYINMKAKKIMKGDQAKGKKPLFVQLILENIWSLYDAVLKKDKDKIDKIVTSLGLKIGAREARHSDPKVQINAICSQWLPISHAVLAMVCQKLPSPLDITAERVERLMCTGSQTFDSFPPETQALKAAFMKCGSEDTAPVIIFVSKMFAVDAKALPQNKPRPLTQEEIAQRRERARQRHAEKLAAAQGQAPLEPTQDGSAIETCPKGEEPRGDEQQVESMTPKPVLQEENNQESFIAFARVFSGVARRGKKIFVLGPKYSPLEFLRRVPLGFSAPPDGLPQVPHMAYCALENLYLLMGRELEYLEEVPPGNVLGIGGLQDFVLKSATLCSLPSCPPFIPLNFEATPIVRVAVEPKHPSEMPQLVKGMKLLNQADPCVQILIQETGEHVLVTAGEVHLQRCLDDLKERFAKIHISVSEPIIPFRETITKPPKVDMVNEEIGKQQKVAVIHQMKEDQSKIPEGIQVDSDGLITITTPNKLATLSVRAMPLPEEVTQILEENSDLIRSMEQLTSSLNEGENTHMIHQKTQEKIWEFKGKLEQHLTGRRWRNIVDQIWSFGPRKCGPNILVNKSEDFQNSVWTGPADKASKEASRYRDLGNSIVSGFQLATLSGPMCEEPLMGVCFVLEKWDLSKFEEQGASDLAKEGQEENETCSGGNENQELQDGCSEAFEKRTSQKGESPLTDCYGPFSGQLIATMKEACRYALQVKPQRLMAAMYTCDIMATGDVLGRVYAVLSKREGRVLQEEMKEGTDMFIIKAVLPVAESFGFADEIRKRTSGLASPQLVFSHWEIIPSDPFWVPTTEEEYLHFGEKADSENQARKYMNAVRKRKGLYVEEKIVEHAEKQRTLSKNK
Sequence of UniProt P68104 (P68104 whole entry): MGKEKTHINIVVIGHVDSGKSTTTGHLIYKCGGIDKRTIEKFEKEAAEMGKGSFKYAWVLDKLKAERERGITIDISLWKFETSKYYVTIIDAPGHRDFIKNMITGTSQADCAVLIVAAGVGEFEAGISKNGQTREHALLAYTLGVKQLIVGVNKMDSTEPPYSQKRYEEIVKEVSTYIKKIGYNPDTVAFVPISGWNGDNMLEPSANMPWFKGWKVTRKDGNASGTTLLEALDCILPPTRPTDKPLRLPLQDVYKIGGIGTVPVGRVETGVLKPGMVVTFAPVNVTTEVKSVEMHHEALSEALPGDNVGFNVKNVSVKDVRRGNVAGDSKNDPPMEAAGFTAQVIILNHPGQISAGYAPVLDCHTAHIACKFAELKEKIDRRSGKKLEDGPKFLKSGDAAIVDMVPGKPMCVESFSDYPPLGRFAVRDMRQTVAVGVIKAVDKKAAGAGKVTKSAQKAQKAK
Sequence of UniProt Q9BV94 (Q9BV94 whole entry): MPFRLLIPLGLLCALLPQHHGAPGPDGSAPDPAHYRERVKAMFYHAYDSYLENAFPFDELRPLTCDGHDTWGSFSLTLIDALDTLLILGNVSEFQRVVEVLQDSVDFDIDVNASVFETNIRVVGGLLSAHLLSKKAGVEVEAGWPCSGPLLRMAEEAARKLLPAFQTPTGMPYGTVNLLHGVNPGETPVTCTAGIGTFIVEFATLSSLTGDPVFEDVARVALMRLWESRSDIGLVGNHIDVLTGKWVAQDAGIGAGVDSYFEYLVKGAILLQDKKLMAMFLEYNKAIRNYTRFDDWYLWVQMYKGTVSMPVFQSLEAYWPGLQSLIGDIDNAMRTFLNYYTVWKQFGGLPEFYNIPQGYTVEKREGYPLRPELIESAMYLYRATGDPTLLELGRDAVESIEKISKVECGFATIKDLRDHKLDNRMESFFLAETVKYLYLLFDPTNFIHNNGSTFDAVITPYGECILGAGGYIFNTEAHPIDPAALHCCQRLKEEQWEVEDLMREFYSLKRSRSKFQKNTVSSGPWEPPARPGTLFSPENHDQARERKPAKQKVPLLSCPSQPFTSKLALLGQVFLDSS
Sequence of UniProt Q9NP97 (Q9NP97 whole entry): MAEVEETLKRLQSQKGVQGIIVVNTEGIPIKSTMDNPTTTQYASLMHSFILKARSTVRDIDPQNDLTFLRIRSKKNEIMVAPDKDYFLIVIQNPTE
Sequence of UniProt P51808 (P51808 whole entry): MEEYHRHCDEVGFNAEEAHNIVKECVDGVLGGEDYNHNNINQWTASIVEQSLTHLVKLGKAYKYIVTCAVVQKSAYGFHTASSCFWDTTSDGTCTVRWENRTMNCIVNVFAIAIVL

Target	thermal stability z-score (lipoamide; [1])	thermal stability z-score (lipoamide; arsenate co-treatment: none)	thermal stability z-score (potassium arsenate)
DTNBP1 (UniProt Q96EV8)	0.331	0.505	-0.102
DTWD1 (UniProt Q8N5C7)	-0.492	-0.205	-0.742
DTWD2 (UniProt Q8NBA8)	-0.283	0.0338	0.0974
DTX2 (UniProt Q86UW9)	-0.228	0.0239	-0.381
DTX3L (UniProt Q8TDB6)	-0.78	-0.366	0.176
DTYMK (UniProt P23919)	-0.383	0.537	-1.22
DUS1L (UniProt Q6P1R4)	0.178	-0.547	0.0119
DUS2 (UniProt Q9NX74)	-0.517	0.0964	-0.452
DUS3L (UniProt Q96G46)	-0.321	-0.548	-0.458
DUSP3 (UniProt P51452)	0.504	0.265	-0.191
DUSP9 (UniProt Q99956)	0.738	0.0584	0.0461
DUSP12 (UniProt Q9UNI6)	-0.0977	0.123	1.05
DUSP23 (UniProt Q9BVJ7)	1.22	0.839	-0.0505
DUT (UniProt P33316)	-0.171	0.377	-0.727
DVL2 (UniProt O14641)	-0.0654	-0.194	-0.113
DXO (UniProt O77932)	0.186	0.216	0.0286
DYM (UniProt Q7RTS9)	0.487	-0.0128	-0.365
DYNC1H1 (UniProt Q14204)	-0.0235	0.118	-0.164
DYNC1I2 (UniProt Q13409)	0.0629	0.266	-0.19
DYNC1LI1 (UniProt Q9Y6G9)	-0.18	-0.1	0.463
DYNC1LI2 (UniProt O43237)	-0.543	-0.166	0.192
DYNC2H1 (UniProt Q8NCM8)	-0.15	-0.28	-0.209
DYNC2LI1 (UniProt Q8TCX1)	0.0696	-0.0585	0.202
DYNLL1 (UniProt P63167)	-0.627	-0.0429	0.163

Target	thermal stability z-score (lipoamide; [1])	thermal stability z-score (lipoamide; arsenate co-treatment: none)	thermal stability z-score (potassium arsenate)
DYNLL2 (UniProt Q96FJ2)	0.256	0.641	0.118
DYNLRB1 (UniProt Q9NP97)	-0.37	0.743	0.237
DYNLT3 (UniProt P51808)	0.487	-0.208	-0.596
DYRK1A (UniProt Q13627)	-0.118	-0.0216	0.54
E2F3 (UniProt O00716)	-0.295	-0.154	-0.342
E2F4 (UniProt Q16254)	0.295	0.54	0.373
EAF1 (UniProt Q96JC9)	1.02	0.0799	-0.000349
EAPP (UniProt Q56P03)	0.767	0.459	-0.167
EARS2 (UniProt Q5JPH6)	-1	-0.188	0.0121
EBAG9 (UniProt O00559)	1.73	1.25	0.749
EBNA1BP2 (UniProt Q99848)	0.29	-0.281	0.463
ECD (UniProt O95905)	-0.47	-0.00943	-0.232
ECE1 (UniProt P42892)	-0.298	-0.225	-0.191
ECE2 (UniProt P0DPD6)	-0.0621	0.0487	-0.104
ECEL1 (UniProt O95672)	-1.25	-0.891	1.11
ECH1 (UniProt Q13011)	-0.108	0.163	-0.0954
ECHDC1 (UniProt Q9NTX5)	0.928	0.478	0.479
ECHS1 (UniProt P30084)	-0.919	-0.57	-1.22
ECI1 (UniProt P42126)	0.859	0.555	0.59
ECI2 (UniProt O75521)	0.0605	-0.724	-0.44
ECSIT (UniProt Q9BQ95)	0.434	-0.221	-0.207
ECT2 (UniProt Q9H8V3)	-0.0726	-0.00204	-0.475
EDC3 (UniProt Q96F86)	-0.713	-0.608	-0.555
EDC4 (UniProt Q6P2E9)	-0.258	0.0716	-0.454

Target	thermal stability z-score (lipoamide; [1])	thermal stability z-score (lipoamide; arsenate co-treatment: none)	thermal stability z-score (potassium arsenate)
EDEM1 (UniProt Q92611)	-0.0592	-0.0491	0.0795
EDEM2 (UniProt Q9BV94)	0.18	0.234	0.127
EDEM3 (UniProt Q9BZQ6)	-3.5	-2.77	0.485
EDF1 (UniProt O60869)	0.657	0.578	0.199
EDIL3 (UniProt O43854)	-0.15	-0.528	1.14
EDRF1 (UniProt Q3B7T1)	-0.147	-0.327	-0.168
EEA1 (UniProt Q15075)	0.149	0.231	-0.325
EED (UniProt O75530)	0.547	0.145	-0.276
EEF1A1 (UniProt P68104)	-0.0408	0.166	0.2
EEF1B2 (UniProt P24534)	0.748	0.472	0.849
EEF1D (UniProt P29692)	0.303	0.257	-0.0726
EEF1E1 (UniProt O43324)	0.552	0.194	0.997
EEF1G (UniProt P26641)	0.0213	0.149	0.215
EEF2 (UniProt P13639)	-0.0517	0.0227	-0.39
EEF2K (UniProt O00418)	-0.0522	-0.0721	-0.0657
EEF2KMT (UniProt Q96G04)	0.0521	0.046	0.0729
EEFSEC (UniProt P57772)	-0.771	0.715	-0.884
EFCAB14 (UniProt O75071)	-0.971	-1.74	0.262
EFEMP1 (UniProt Q12805)	-3.26	-2.96	0.134
EFHD2 (UniProt Q96C19)	0.403	0.677	-0.223
EFL1 (UniProt Q7Z2Z2)	-0.245	0.0406	0.402
EFTUD2 (UniProt Q15029)	0.0587	-0.0524	-0.28
EGFL7 (UniProt Q9UHF1)	0.126	0.102	-0.108
